Experimental data published in patent US12516082B2, “Metal-carbohydrate complex” (ARCZONE K.K., priority 2020, dated 2026).

How the values were obtained:
Type in all cases: cell-based, mouse
MIN6 [1] = assay: Proportion of dead cells by propidium iodide, MIN6 at 4 DIV in culture
Protocol: (§1) A mouse pancreatic β-cell tumorigenic (insulinoma) cell line MIN6 (Miyazaki J. et al., Endocrinology 127:126-132, 1990) was used to perform the following experiment. Here, all experiments which include an experiment where the above-described compound B (hereinafter called LGG) is administered and an experiment where the above-described compound A (hereinafter called DGG) is administered and in which about 1,000 MIN6 cells were placed in 96 wells were carried out by taking care to avoid external disturbances as much as possible.
MIN6 cells derived from mouse pancreas are a heterogeneous cell population (Yamato, E. et al., PLOS One 8: e61211, 2013). Up to about 4 to 5 DIV after the start of culture, normal cells, that is, insulin-producing β-cells of pancreatic islets of Langerhans accounted for the majority. […]
Specifically, LGG and DGG were administered to MIN6 at 0 to 1,000 μm at 4 DIV in culture, and after the elapse of 90 minutes, the proportion of the number of dead cells evaluated using a dead cell marker propidium iodide (PI) was measured as a function of their concentrations. […] However, the vertical axis is a value (%) normalized by the fluorescence intensity of the total number of cells assuming that the number of dead cells at a concentration of 1,000 μm is the total number of cells in each well. […]

MIN6 [2] = assay: Optical microscope observation of cell conditions, MIN6 at 5 DIV, with or without PHT
Protocol: as §1
Here, a further experiment was carried out to verify whether the LGG-induced cell death clearly shown in FIG. 2 was indeed caused by the intracellular uptake of LGG. Specifically, whether the cell death is inhibited was examined by administering LGG in the presence of phloretin (hereinafter called PHT).
PHT functions as an inhibitor on various membrane transport proteins such as water channel proteins or glucose transporter proteins (Ono K. et al., Cancers 12:850, 2020). […] That is, it is estimated that, when an L-glucose derivative is applied to MIN6 cells in the presence of PHT, incorporation of LGG into “cells into which the L-glucose derivative can be incorporate” which are partially present in a heterogeneous cell population is inhibited by the effect of inhibiting a non-transporter type transport mechanism by PHT. […]

MIN6 [3] = assay: Calcein fluorescence intensity (activity of living cells), MIN6 at 5 DIV, with or without PHT; details: FIG. 5
Protocol: as §1
Furthermore, the effect of LGG on cells was quantitatively analyzed in the presence or absence of PHT. Specifically, similarly to the cases of FIG. 3 described above, the fluorescence intensity of calcein, which is a fluorescent marker representing activities of living cells, was evaluated for the case (A) where LGG was not administered to MIN6 (at 5 DIV) (control experiment), the case (B) where 100 μm LGG was administered thereto for 10 minutes (LGG), and the case (C) where 100 μm LGG was administered thereto for 10 minutes after 150 μm PHT was administered in advance. In FIG. 5, the error bars indicate standard errors SE, and the numerical values in parentheses indicate the number of ROIs analyzed. […]

MIN6 [4] = assay: Proportion of dead cells, MIN6 at long DIV (18 to 19 DIV) in culture; details: MIN6 at 19 DIV for LGG, 18 DIV for DGG; administered for 10 minutes; FIG. 6
Protocol: as §1
Specifically, LGG and DGG were administered to MIN6 at 0 to 1,000 μm at 4 DIV in culture, and after the elapse of 90 minutes, the proportion of the number of dead cells evaluated using a dead cell marker propidium iodide (PI) was measured as a function of their concentrations. […] However, the vertical axis is a value (%) normalized by the fluorescence intensity of the total number of cells assuming that the number of dead cells at a concentration of 1,000 μm is the total number of cells in each well. The broken line is an eye guide.
Furthermore, the same experiment as that of FIG. 2 was carried out for MIN6 at long DIV in culture. However, in either case, observations were carried out after DGG or LGG was administered for 10 minutes.

Question: With CC[P+](CC)(CC)[Au-][S]C1OC(CO)C(O)C(O)C1O [LGG, (1-thio-β-L-glucopyranoside) (S-triethylphosphine) gold (I)] as the compound, how does the “safety against normal cells relative to DGG” value (MIN6 [1]; MIN6 at 4 DIV (mostly normal β-cells), from 50% effective doses) read?
Answer: approximately 10 times

Question: What about the “concentration above which cell death evaluated using PI becomes detectable” value (MIN6 [1]; MIN6 at 4 DIV, 90 minutes after administration, interpolation of FIG. 2) of the same compound?
Answer: 10 μm

Question: And the “cell conditions under optical microscope” value (MIN6 [2]; 100 μm LGG for 10 minutes after 150 μm PHT in advance, FIG. 3C, 4f-4i)?
Answer: cells indicating deterioration of the cell conditions are hardly recognized

Question: What about the “cell conditions under optical microscope” value (MIN6 [2]; 100 μm LGG for 10 minutes, no PHT, FIG. 3B, 4e) of the same compound?
Answer: a part of cytoplasm in some cells protrudes outside the cells

Question: And the “fluorescence intensity of calcein (cell activity): decrease due to LGG in presence of PHT” value (MIN6 [3]; 100 μm LGG for 10 minutes after 150 μm PHT in advance)?
Answer: significantly inhibited by PHT

Question: What about the “fluorescence intensity of calcein (cell activity) versus control” value (MIN6 [3]; 100 μm LGG for 10 minutes, no PHT) of the same compound?
Answer: significantly reduced activities of MIN6 cells

Question: What about the “concentration dependence of the proportion of the number of dead cells” value (MIN6 [4]) of the same compound?
Answer: almost matches the DGG concentration dependence
